Where two headings read alike, the source gives them in different places.
Assays:
human PWS fibroblasts = assay: RT-PCR of 15q11-q13 genes in human PWS fibroblasts; type: cell-based; details: for SNORD116 and its putative host transcript (116HG): 4 μM, 72 hours
Protocol: For testing long lasting drug effects, the 6 week-old m^S-EGFP/p^+ mice were treated daily by i.p. injection for seven consecutive days.
For reverse-transcription PCR (RT-PCR) and quantitative real time RT-PCR (qRT-PCR), first total RNA was extracted from the fibroblasts and/or collected tissues (liver and brain) using Direct-zol RNA Miniprep kit (Zymo Research cat. no. R2070). 2 μg of total RNA was directly used for single strand cDNA synthesis with Superscript III reverse transcriptase (Invitrogen cat. no. 18080-093) according to the manufacturer's protocols. The conditions for RT-PCR were 95° C./5 min, 35-40 cycles of 95° C./30 sec, 56-60° C./60 sec, 72° C./60 sec. Quantification of target gene expression was performed in a LightCycler480 instrument (Roche) using SsoAdvanced Universal SYBR green Supermix (Biorad cat. no. 172-5271) according to the manufacturer's instructions. See Table 4 for primer sequences and conditions used for experiments for RT-PCR, qRT-PCR, bisulfite genomic sequencing, ChIP-qPCR, and chromatin accessibility assay.
FIG. 4a represents a schematic of genomic organization at the human chromosome 15q11-q13 region imprinting center. Because imprinting of SNPRN is known to be ubiquitous, the G9a-inhibitor effect on its activation is expected to be representative of all tissues and cell types.

H3K9me2 = details: cited from earlier work
maternal Snrpn-EGFP MEFs = assay: High content screening / concentration response of Snrpn-EGFP unsilencing; type: cell-based, mouse; details: for EC50: read-out: half-maximal effective concentration (EC50), Snrpn-EGFP unsilencing; for activation of S-EGFP: mS-EGFP/p+ MEFs
Protocol: High content screenings of small molecules were performed as described in Huang, et al. Nature 481, 185-189 (2012). HCS comprises a 384-well high-content screen using primary mouse embryonic fibroblasts (MEFs) from m^S-EGFP/p^+, and searched for drug-like molecules that could unsilence the maternal S-EFGP allele. […] To perform the screen, primary MEFs were isolated from E12.5-14.5 embryos of m^S-EGFP/p^+ and cultured for 7 days in Dulbecco's modified Eagle's media supplemented with 10% fetal bovine serum, 100 Units/mL penicillin and 100 μg/mL streptomycin, at 37° C. and 5% CO2. One day before treatment with small molecules, 5,000 cells per well were plated onto 384-well plates. The cells were then treated with compounds (10 μM for 72 hours) from multiple small molecule libraries (FIG. 1f and FIG. 2). In total, 9,157 small molecules were screened in quadruplicate, normalizing values to vehicle-treatment (0.2% DMSO) (Table 1). The unsilencing of Snrpn-EGFP was determined three days after drug treatment. The immunofluorescence-processed fibroblasts were imaged for Hoechst and Alexa Fluor 488 fluorescence using a BD Pathway 855 high content imaging microscope. Antibody-enhanced Snrpn-EGPF fluorescence intensity was determined in drug-treated cells individually and normalized to cells treated with vehicle control. In order to identify potentially active compounds, an arbitrary cutoff of 125% was used where 100% indicates basal fluorescence in the vehicle-treated MEFs. Analysis was performed using Cell Profiler with custom macro and algorithms. Potential active drugs were defined as the increase in drug-mediated EGFP fluorescence consistently observed across quadruplicate wells and minimal or no cytotoxicity measured by Hoechst-stained nuclear structure (and the changes in total number of cells). After initial validation of all potential active drugs (e.g., to determine whether active compounds show inherent fluorescence, the wild-type fibroblasts were also treated), only effective hit compounds further validated in dose-response tests to determine relative efficacy (Emax) and potency (EC50). The dose-response results were analyzed by using Graphpad Prism (Graphpad Software). The calculated EC50 values (potencies) and estimated Emax (efficacy, Y-value top plateau) enabled comparative analyses of the relative potency and efficacy of the identified compounds.
Three days after drug treatment, the cells were fixed at 4% paraformaldehyde at room temperature for 10 min, followed by rinsing with 1× PBS. The cells were permeabilized with 0.5% Triton X-100 in 1× PBS at room temperature for 10 min, followed by blocking with 5% normal goat serum in 0.1% Triton X-100 in 1× PBS at room temperature for 30 minutes. Primary rabbit anti-GFP antibody (1:1000, Novus Biologicals cat. no. NB100-1770) was incubated at 4° C. overnight. The next day, the cells were rinsed with 1× PBS and incubated with goat anti-rabbit Alexa Fluor 488 (Invitrogen cat. no. A-11008) and Hoechst at room temperature. One hour after incubation, the cells were rinsed with 1× PBS and imaged for Hoechst and Alexa Fluor 488 fluorescence using a BD Pathway 855 high content imaging microscope.
It is not feasible to design a screen for noncoding RNA. Alternatively, SNRPN/Snprn is paternally expressed but maternally silenced in all human and mouse tissues. The allele-specific expression of human SNRPN is regulated by the PWS-IC, which also controls the expression of host transcripts for SnoRNAs, including the SNORD116 cluster between SNRPN and UBE3A. see Le Meur, E. et al., Dev. Biol. 286, 587-600 (2005). Thus, the Snrpn-EGFP fusion protein (hereafter S-EGFP) was used as a marker for high content screening (HCS). It was determined that small molecules that can unsilence S-EGFP would also be effective in reactivating the host transcript of SNORD116. […]

PWS-IC = assay: Bisulfite genomic sequencing of PWS-IC, human PWS cells; type: cell-based
Protocol: Genomic DNA was isolated from human PWS fibroblasts or mouse tissues. DNA (1 μg) was then treated by bisulfite using the Epi-Tect bisulfite kit (Qiagen), and 125 ng input DNA was used per PCR amplification. PCR products were sub-cloned into pGEM-T easy vector (Promega) and an average of 15 clones were sequenced. DNA sequencing results were analyzed using BISMA web-based analysis platform with a setting for individual clones with <95% bisulfite conversion and <90% sequence identity to be excluded in the analysis.

Compound | SNORD116 and its putative host transcript (116HG) (human PWS fibroblasts) | potency for H3K9me2 mark (H3K9me2; several cell lines) | EC50 (maternal Snrpn-EGFP MEFs; Mus musculus, 72 h) | activation of S-EGFP (maternal Snrpn-EGFP MEFs) | activation of SNRPN and SNORD116 transcripts (human PWS fibroblasts; 1-4 μM) | DNA methylation of the PWS-IC (PWS-IC) | reduction of the levels of H3K9me2 (H3K9me2; 250 nM, variety of cell lines) | EC50 (maternal Snrpn-EGFP MEFs; maternal Snrpn-EGFP MEFs, 72 hours)
COc1cc2c(NC3CCN(C(C)C)CC3)nc(N3CCC(F)(F)CC3)nc2cc1OCCCN1CCCC1 [UNC0642] | effective | high potency | 2700 nM | active | – | – | – | –
COc1cc2c(NC3CCN(C(C)C)CC3)nc(C3CCCCC3)nc2cc1OCCCN1CCCC1 [UNC0638] | effective | – | – | active | effectively activated | did not significantly alter | 60-80% | 1600 nM

Source: patent US11278550B2, “Compositions and methods for the treatment of Prader-Willi syndrome” (Duke University, priority 2016, dated 2022)
